In patent publication US11957680B2, “Pyruvate kinase activators for use in treating blood disorders” (Agios Pharmaceuticals, Inc., priority 2017, dated 2024):

Legend:
PKR R510Q = PKR R510Q (Homo sapiens, UniProt P30613, R510Q); assay: PKR mutant assay (R510Q), AC50, LDH/NADH-coupled, absorbance at 340 nm; format: biochemical; conditions: Table 2, enzyme assay; for AC50: read-out: PK R510Q AC50
Procedure: (§1) Example 11. PKR Mutant Assay
(§2) PKR or PKR mutant enzyme solution was diluted into a reaction mix, which contains 1× buffer (100 mM KCl, 50 mM Tris pH 7.5, 5 mM MgCl2) as well as PEP (conc depends on enzyme), 180 μM NADH, 0.5 units LDH, 1 mM DTT, 0.03% BSA; final assay concentrations after 1.11 fold dilution are indicated.
(§3) 2 μL of test compound was added into wells first, and then 180 μL reaction mix was added.
(§4) Reactions mixture with test compound was assembled except for ADP, and plates were stored for 60 minutes at room temperature.
(§5) 20 uL ADP was added to start reaction at room temperature and reaction progress was measured as changes in absorbance at 340 nm wavelength at room temperature.
(§6) Test Compound Preparation:
(§7) Test compound stock was made at 100× concentration in 100% DMSO (10 mM)
(§8) 1 to 3 dilutions were made for 11 points (i.e. 50 μl of first concentration added to 100 μl 100% DMSO to yield 3.33 mM, 50 μl of this added to 100 μl DMSO to yield 1.11 mM, and so forth) • 1 to 100 dilution into assay (2 μl in 200 μl) yielded starting concentration of 100 μM, decreasing 3 fold for 11 points.
(§9) Assay Buffer: 100 mM KCl, 50 mM Tris 7.5, 5 mM MgCl2, 1 mM DTT, 0.03% BSA
(§10) Reaction Mixture: PKR mutant enzyme: 40-400 ng/well; ADP: 0.2-1.65 mM; PEP: 0.1-0.5 mM; NADH: 180 μM; LDH: 0.5 units (Sigma #59023); DTT: 1 mM; BSA: 0.03%.

wild type PKR [1] = biological target: T1, wild type PKR (Homo sapiens, UniProt P30613); assay: PKR (wild type) enzyme AC50 assay, LDH/NADH-coupled, absorbance at 340 nm; format: biochemical; conditions: Table 2, enzyme assay; for AC50: read-out: PKR WT AC50
Procedure: as §1, §2, §3, §4, §5, §6, §7, §8, §9, §10

PKR K410E = PKR K410E (Homo sapiens, UniProt P30613, K410E); assay: PKR mutant assay (K410E), AC50, LDH/NADH-coupled, absorbance at 340 nm; format: biochemical; conditions: Table 2; enzyme assay
Procedure: as §1, §2, §3, §4, §5, §6, §7, §8, §9, §10

wild type PKR [2] = biological target: T1, wild type PKR; assay: Cell based ATP assay in purified red blood cells (Cell-Titer-Glo); set-up: endogenous in cells; host or cells: purified red blood cells from healthy volunteers; conditions: Table 2; RBCs, overnight at 37° C., ATP levels
Procedure: Example 16. Red Blood Cell (RBC) Purification
Fresh blood drawn from healthy volunteers into K2EDTA tubes was collected. Whole blood was pelleted by spinning at 500 g for 10 minutes. Cut transfusion bag port off of Purecell leukocyte reduction neofilter (Fisher NC0267633) one (1) inch above filter. Attach a 10 ml syringe barrel to the remaining cut tubing attached to neofilter. The plasma layer was removed from the pellet of the whole blood and the pellet was resuspended in 2× volume of phosphate buffered saline (PBS). Transfer 9 ml re-suspended blood cell pellet to prepared 10 ml syringe that is attached to the neofilter. Allow whole blood to gravity flow through filter until all fluid runs through upper tubing into filter disc. Add plunger to the syringe, remove syringe from clamp and invert the filter, then plunge air through the syringe filter system. Using a new 5 ml syringe, remove filtered RBCs from the bag by the syringe port and transfer purified RBCs to a 5 ml snap cap tube that has been incubated on ice. Spin 5 ml snap cap tube at 500 g for 10 minutes at 15 C, aspirate supernatant and resuspend in AGAM (1×PBS, 1% glucose, 170 mg/L adenine, 5.25 g/L mannitol) at a density of 4×10^9 cells/mL.
Example 17. Cell Based ATP Assay
For cell based ATP assays, the compound as described herein was prepared in 100% DMSO as a 10 mM stock. Serial dilutions (1:4) were performed in 96-well V-bottom storage plate and then added 1:100 to 96-well V-bottom plates containing AGAM. RBCs were diluted in AGAM media to a density of 1×10^7 cells/mL before added 90 μL/well to black clear bottom assay plates (final compound concentration at 0.1% DMSO concentration). Assay plates were sealed using aluminum foil seals and incubated overnight at 37° C. in a humidified chamber. ATP levels were read out using Cell-Titer-Glo (Promega).

Chain of PKR K410E (P30613 whole entry K410E): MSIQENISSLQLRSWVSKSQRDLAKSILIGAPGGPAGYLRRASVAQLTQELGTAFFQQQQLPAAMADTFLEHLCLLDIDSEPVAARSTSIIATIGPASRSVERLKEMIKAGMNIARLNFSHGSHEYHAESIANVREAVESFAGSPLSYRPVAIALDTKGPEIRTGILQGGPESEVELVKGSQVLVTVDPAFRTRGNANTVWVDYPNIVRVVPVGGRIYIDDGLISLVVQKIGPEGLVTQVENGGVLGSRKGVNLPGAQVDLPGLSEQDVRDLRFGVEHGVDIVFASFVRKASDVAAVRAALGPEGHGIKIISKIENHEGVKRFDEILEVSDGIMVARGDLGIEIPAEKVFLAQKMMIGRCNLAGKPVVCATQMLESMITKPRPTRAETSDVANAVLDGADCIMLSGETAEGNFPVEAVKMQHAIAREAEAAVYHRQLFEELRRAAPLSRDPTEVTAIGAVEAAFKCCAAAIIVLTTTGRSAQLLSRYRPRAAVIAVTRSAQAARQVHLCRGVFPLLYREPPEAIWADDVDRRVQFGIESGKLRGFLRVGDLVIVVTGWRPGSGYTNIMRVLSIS
Chain of PKR R510Q (P30613 whole entry R510Q): as the sequence (P30613 whole entry K410E) above, with E410K, R510Q counted along it
T1 sequence (P30613 whole entry): as the sequence (P30613 whole entry K410E) above, with E410K counted along it

| SMILES | AC50 (PKR R510Q) [nM] | AC50 (wild type PKR [1]) [nM] | AC50 (PKR K410E) [nM] | AC50 (wild type PKR [2]) [nM] | PK R510Q AC50 (PKR R510Q) | PKR WT AC50 (wild type PKR [1]) | PKR K410E AC50 (PKR K410E) | Cell based ATP assay AC50 (wild type PKR [2]) |
| --- | --- | --- | --- | --- | --- | --- | --- | --- |
| Cn1c2nc(Cc3cc[nH]n3)sc2c2cnn(Cc3cccc4[nH]ncc34)c(=O)c21 [Compound 81] | < 300 | < 300 | < 300 | ≤ 1000 |  |  |  |  |
| Cn1c2nc(C(N)=O)sc2c2cnn(Cc3cccc4[nH]ncc34)c(=O)c21 [Compound 82] | 301 to 800 | < 300 | 301 to 800 | > 1000 |  |  |  |  |
| Cn1c2nc(C#N)sc2c2cnn(Cc3cccc4[nH]ncc34)c(=O)c21 [Compound 84] | 301 to 800 | < 300 | 301 to 800 | > 1000 |  |  |  |  |
| CSc1nc2c(s1)c1cnn(Cc3cccc(C(C)(C)O)c3)c(=O)c1n2C [Compound 85] | < 300 | < 300 | 301 to 800 | ≤ 1000 |  |  |  |  |
| Cn1c2nc(Cc3cccc(O)c3)sc2c2cnn(Cc3cccc4[nH]ncc34)c(=O)c21 [Compound 89] | < 300 | < 300 | < 300 | ≤ 1000 |  |  |  |  |
| Cn1c2nc(Cc3ccccc3)sc2c2cnn(Cc3cccc4[nH]ncc34)c(=O)c21 [Compound 91] | < 300 | < 300 | < 300 | ≤ 1000 |  |  |  |  |
| Cn1c2nc(S(C)(=O)=O)sc2c2cnn(Cc3cccc4[nH]ncc34)c(=O)c21 [Compound 92] | 301 to 800 | < 300 | 301 to 800 | ≤ 1000 |  |  |  |  |
| Cn1c2nc(Cc3ccc(C#N)cc3)sc2c2cnn(Cc3cccc4[nH]ncc34)c(=O)c21 [Compound 93] | > 800 | > 800 | > 800 | > 1000 |  |  |  |  |
| Cn1c2nc(Cc3cccc(C#N)c3)sc2c2cnn(Cc3cccc4[nH]ncc34)c(=O)c21 [Compound 99] | 301 to 800 | < 300 | 301 to 800 | ≤ 1000 |  |  |  |  |
| Cn1c2nc(Cc3cccc(C(N)=O)c3)sc2c2cnn(Cc3cccc4[nH]ncc34)c(=O)c21 [Compound 100] | < 300 | < 300 | < 300 | ≤ 1000 |  |  |  |  |
| CNc1cccc(Cc2nc3c(s2)c2cnn(Cc4cccc5[nH]ncc45)c(=O)c2n3C)c1 [Compound 103] | < 300 | < 300 | < 300 | ≤ 1000 |  |  |  |  |
| C=Cc1nc2c(s1)c1cnn(Cc3cccc4[nH]ncc34)c(=O)c1n2C [Compound 104] | < 300 | < 300 | > 800 | > 1000 |  |  |  |  |
| Cn1c2nc(CO)sc2c2cnn(Cc3cccc4[nH]ncc34)c(=O)c21 [Compound 105] | < 300 | < 300 | < 300 | ≤ 1000 |  |  |  |  |
| CC(O)c1nc2c(s1)c1cnn(Cc3cccc4[nH]ncc34)c(=O)c1n2C (stereo not drawn) [Compound 106] | < 300 | < 300 | < 300 | ≤ 1000 |  |  |  |  |
| CSc1nc2c(s1)c1cnn(Cc3cn4cccnc4n3)c(=O)c1n2C [Compound 107] | > 800 |  | > 800 |  |  | No Fit |  | No Fit |
| COc1cccc(Cn2ncc3c4sc(C(F)(F)c5ccccc5)nc4n(C)c3c2=O)c1 [Compound 108] | < 300 | < 300 | < 300 | ≤ 1000 |  |  |  |  |
| CNc1ccc(Cc2nc3c(s2)c2cnn(Cc4cccc5[nH]ncc45)c(=O)c2n3C)cc1 [Compound 109] | < 300 | < 300 | < 300 | ≤ 1000 |  |  |  |  |
| CSc1nc2c(s1)c1cnn(Cc3cccc(S(N)(=O)=O)c3)c(=O)c1n2C [Compound 110] | > 800 | > 800 | > 800 |  |  |  |  | No Fit |
| Cn1c2nc(Cc3cc[nH]n3)sc2c2cnn(Cc3ccc4ccccc4n3)c(=O)c21 [Compound 111] | < 300 | < 300 | < 300 | ≤ 1000 |  |  |  |  |
| Cn1c2nc(Cc3ccc(C(N)=O)cc3)sc2c2cnn(Cc3cccc4[nH]ncc34)c(=O)c21 [Compound 112] | > 800 | > 800 | > 800 | > 1000 |  |  |  |  |
| COC(=O)C(C(=O)OC)c1nc2c(s1)c1cnn(Cc3cccc4[nH]ncc34)c(=O)c1n2C [Compound 113] | > 800 | > 800 | > 800 | > 1000 |  |  |  |  |

The next lines start with the values.

| AC50 (PKR R510Q) [nM] | AC50 (wild type PKR [1]) [nM] | AC50 (PKR K410E) [nM] | AC50 (wild type PKR [2]) [nM] | PK R510Q AC50 (PKR R510Q) | PKR WT AC50 (wild type PKR [1]) | PKR K410E AC50 (PKR K410E) | Cell based ATP assay AC50 (wild type PKR [2]) | SMILES |
| --- | --- | --- | --- | --- | --- | --- | --- | --- |
| < 300 | > 800 | > 800 | > 1000 |  |  |  |  | Cn1c2nc([S+](C)[O-])sc2c2cnn(Cc3cccc4c3CCNC4)c(=O)c21 (stereo not drawn) [Compound 80] |
| < 300 | < 300 | < 300 | ≤ 1000 |  |  |  |  | Cn1c2nc([S+](C)[O-])sc2c2cnn(Cc3csc(N)n3)c(=O)c21 (stereo not drawn) [Compound 83] |
| > 800 | < 300 | > 800 | > 1000 |  |  |  |  | CC(=O)c1cccc(Cn2ncc3c4sc([S+](C)[O-])nc4n(C)c3c2=O)c1 (stereo not drawn) [Compound 86] |
| 301 to 800 | < 300 | < 300 | ≤ 1000 |  |  |  |  | Cn1c2nc([S+](C)[O-])sc2c2cnn(Cc3cccc(C(C)(C)O)c3)c(=O)c21 (stereo not drawn) [Compound 87] |
| 301 to 800 | < 300 | 301 to 800 | ≤ 1000 |  |  |  |  | CC(O)c1cccc(Cn2ncc3c4sc([S+](C)[O-])nc4n(C)c3c2=O)c1 (stereo not drawn) [Compound 88] |
| < 300 | < 300 | < 300 | > 1000 |  |  |  |  | Cn1c2nc([S+](C)[O-])sc2c2cnn(Cc3ccc4c(c3)OCCO4)c(=O)c21 (stereo not drawn) [Compound 90] |
|  | > 800 | > 800 | > 1000 | No Fit |  |  |  | Cn1c2nc([S+](C)[O-])sc2c2cnn(Cc3cnc(N)nc3)c(=O)c21 (stereo not drawn) [Compound 94] |
|  |  |  |  | No Fit | No Fit | No Fit | No Fit | CSc1nc2c(s1)c1cnn(Cc3cnc(=O)[nH]c3)c(=O)c1n2C [Compound 95] |
|  | > 800 | > 800 |  | No Fit |  |  | No Fit | CSc1nc2c(s1)c1cnn(Cc3ccnc(=O)[nH]3)c(=O)c1n2C [Compound 96] |
| > 800 | > 800 | > 800 | > 1000 |  |  |  |  | Cn1c2nc([S+](C)[O-])sc2c2cnn(Cc3ccnc(N)n3)c(=O)c21 (stereo not drawn) [Compound 97] |
|  |  | > 800 | > 1000 | No Fit | No Fit |  |  | Cn1c2nc([S+](C)[O-])sc2c2cnn(Cc3ccc(C(N)=O)cc3)c(=O)c21 (stereo not drawn) [Compound 98] |
| > 800 | > 800 | > 800 | > 1000 |  |  |  |  | Cn1c2nc([S+](C)[O-])sc2c2cnn(Cc3cnc(N)s3)c(=O)c21 (stereo not drawn) [Compound 101] |
| < 300 | < 300 | < 300 | ≤ 1000 |  |  |  |  | Cn1c2nc([S+](C)[O-])sc2c2cnn(Cc3ccc4ccccc4n3)c(=O)c21 (stereo not drawn) [Compound 102] |
| < 300 | < 300 | < 300 |  |  |  |  | No Fit | CSc1nc2c(s1)c1cnn(Cc3cccc4sc(N)nc34)c(=O)c1n2C [Compound 114] |
| > 800 | > 800 | > 800 |  |  |  |  | No Fit | CSc1nc2c(s1)c1cnn(Cc3ccc(S(N)(=O)=O)cc3)c(=O)c1n2C [Compound 116] |
